# According to patent publication US12612354B2, “Cyclopentenones derivatives and their use as antibiotics” (Centre National de la Recherche Scientifique (CNRS), priority 2020, dated 2026):
# Like-named read-outs stand apart in the source and are kept apart here.
# Columns and labels:
# Type in all cases: cell-based
# [1] = system: Bacillus subtilis ATCC6633; test: Petri dish inhibition zone method, % inhibition of growth; settings: 24 h, 100 μg of compound
# Description: (§1) Pathogenic bacteria were revived by streaking bacteria on 100 mm Petri dishes containing the suitable medium recommended by ATCC protocol, overnight at 30 to 37° C.: Luria-Bertani Broth (LB, Difco, Thermo Fisher Scientific Inc.), Tryptic Soy Broth (TSB, Difco, Thermo Fisher Scientific Inc.), Nutrient Broth (NB, Difco, Thermo Fisher Scientific Inc.), supplemented with 2% of agar (Granulated Agar, Difco, Thermo Fisher Scientific Inc.). For each pathogen, several colonies were collected with a loop and transferred in 5 ml of sterile NB medium and incubated on a rotary shaker (130 rpm) overnight at 30 to 37° C. 150 mm Nutrient Broth Agar plates were swabbed with inocula and kept for 15 min for absorption. Pre-sterilized six-millimeter Whatman No. 1 discs were placed in the Petri dishes and 12.5, 25, 50 and 100 μg of the test compounds in DMSO (10 mg/ml) were applied to the sterile disc papers. The standard drug gentamycin (10 μg) was used as a positive reference standard to determine the sensitivity of each bacterial species and DMSO as a negative control. Then the plates were incubated at 30° or 37° C. for 24 h and inhibition diameters were measured. Compounds Ib, Ic, Ij, Ik, Il, Im, Ih, Ig, Ii, Id and If have also been tested on the following pathogenic bacteria in order to evaluate their inhibition efficacy by the Petri dish inhibition zone method: • Micrococcus luteus ATCC10240; • Bacillus subtilis ATCC6633; • Escherichia coli ATCC 25922. The percentage of inhibition growth at 100 μg of each tested compound has been determined.
# [2] = system: Micrococcus luteus ATCC10240; test: as above; settings: 24 h, 100 μg of compound
# Description: as §1
# [3] = system: Enterobacter cloacae ATCC 13047; test: Kirby-Bauer disk diffusion susceptibility test (inhibition zone); settings: 12.5, 25, 50 and 100 μg per disc, FIG. 2
# Description: (§2) FIG. 2: Kirby-Bauer Disk diffusion susceptibility test on Enterobacter cloacae ATCC 13047 with compounds Ia and Ib at 12.5, 25, 50 and 100 μg and the reference gentamicin at 10 μg; left: graph representing the diameter of the inhibition zone as a function of each sample; right: photo of the petri dish illustrating the inhibition zones with Ia at 12.5, 25, 50 and 100 μg.
# (§3) Pathogenic bacteria were revived by streaking bacteria on 100 mm Petri dishes containing the suitable medium recommended by ATCC protocol, overnight at 30 to 37° C.: Luria-Bertani Broth (LB, Difco, Thermo Fisher Scientific Inc.), Tryptic Soy Broth (TSB, Difco, Thermo Fisher Scientific Inc.), Nutrient Broth (NB, Difco, Thermo Fisher Scientific Inc.), supplemented with 2% of agar (Granulated Agar, Difco, Thermo Fisher Scientific Inc.).
# (§4) For each pathogen, several colonies were collected with a loop and transferred in 5 ml of sterile NB medium and incubated on a rotary shaker (130 rpm) overnight at 30 to 37° C.
# (§5) 150 mm Nutrient Broth Agar plates were swabbed with inocula and kept for 15 min for absorption. Pre-sterilized six-millimeter Whatman No. 1 discs were placed in the Petri dishes and 12.5, 25, 50 and 100 μg of the test compounds in DMSO (10 mg/ml) were applied to the sterile disc papers. […] Then the plates were incubated at 30° or 37° C. for 24 h and inhibition diameters were measured. […]
# [4] = system: Staphylococcus aureus BAA-1766 (MRSA); test: Minimum inhibitory concentration (MIC), microbroth dilution assay; settings: S. aureus BAA-1766 (MRSA), Mueller-Hinton broth
# Description: as §3, with “Inc.)” for “Inc.).”
# (§6) For each pathogen, several colonies were collected with a loop and transfered in 10 ml of sterile Mueller-Hinton broth (Sigma) medium and incubated on a rotary shaker (130 rpm) […] at 30 to 37° C. The OD at 600 nm was measured and adjusted to 0.5 OD, then the solution was diluted 400-fold to have the appropriate inoculum
# (§7) The antimicrobial susceptibility was carried out by microbroth dilution assay. Tests were performed on 96-well plates with 100 μL of Mueller-Hinton broth (Sigma) medium final volume and a final bacterial concentration of 5.10^5 CUF/ml. The tested compounds were solubilized in dimethyl sulfoxide (DMSO) given 10 mg/mL (then expressed in μM) stock solution. The stock solutions were diluted from 100 μg/ml to 0.195 μg/ml for testing.
# (§8) Compounds Ia to Ie have also been tested on Staphylococcus aureus ATCC 25923 strain and Staphylococcus aureus BAA-1766 (MRSA) strain (both Gram-positive) by using the screening method of the measurement of MIC (minimum inhibitory concentration).
# (§9) This technique enables to determine the minimum concentration that causes total inhibition of the growth of the target pathogen.
# [5] = system: Staphylococcus aureus ATCC 25923; test: as above; settings: Mueller-Hinton broth
# Description: as §3, with “Inc.)” for “Inc.).”
# as §6, §7, §8, §9
# [6] = system: Acinetobacter baumannii ATCC 19606; test: Kirby-Bauer disk diffusion susceptibility test (inhibition zone); settings: 12.5, 25, 50 and 100 μg per disc, FIG. 3
# Description: as §2, with “FIG. 3:” for “FIG. 2:”, “on Acinetobacter baumanii” for “on Enterobacter cloacae”, “ATCC 19606” for “ATCC 13047”, “compounds Ib” for “compounds Ia”, “and Ic” for “and Ib”, “with Ib and Ic” for “with Ia”
# as §3, §4, §5
# [7] = system: Staphylococcus aureus ATCC 25923; test: as above; settings: S. aureus ATCC 25923; 12.5, 25, 50 and 100 μg per disc; FIG. 1
# Description: as §2, with “FIG. 1:” for “FIG. 2:”, “on Staphylococcus aureus” for “on Enterobacter cloacae”, “ATCC 25923” for “ATCC 13047”, “compounds Ia, Ib” for “compounds Ia”, “and Ic” for “and Ib”, “with Ic” for “with Ia”
# as §3, §4
# (§10) 150 mm Nutrient Broth Agar plates were swabbed with inocula and kept for 15 min for absorption. Pre-sterilized six-millimeter Whatman No. 1 discs were placed in the Petri dishes and 12.5, 25, 50 and 100 μg of the test compounds in DMSO (10 mg/ml) were applied to the sterile disc papers. The standard drug gentamycin (10 μg) was used as a positive reference standard to determine the sensitivity of each bacterial species and DMSO as a negative control. Then the plates were incubated at 30° or 37° C. for 24 h and inhibition diameters were measured.
# Compounds Ia to Ic have also been tested on the following pathogenic bacteria in order to evaluate their inhibition efficacy by the Petri dish inhibition zone method: • Staphylococcus aureus ATCC 25923—Gram-positive (compounds Ia, Ib and Ic tested) • Enterobacter cloacae ATCC 13047—Gram-negative (compounds Ia and Ib tested) • Acinetobacter baumannii ATCC 19606—Gram-negative (compounds Ib and Ic tested) • Escherichia coli ATCC 25922—Gram-negative (compounds Ia and Ib tested) […]
# [8] = system: Escherichia coli ATCC 25922; test: as above; settings: for inhibition activity (inhibition zone): 12.5, 25, 50 and 100 μg per disc, FIG. 4; for inhibition of growth at 100 µg/disc: ATCC25922, 24 h, 100 μg of compound
# Description: as §2, with “4:” for “2:”, “Escherichia coli” for “Enterobacter cloacae”, “25922” for “13047”
# as §3, §4, §10
# Compounds Ia to Ic have also been tested on the following pathogenic bacteria in order to evaluate their inhibition efficacy by the Petri dish inhibition zone method: • Staphylococcus aureus ATCC 25923—Gram-positive (compounds Ia, Ib and Ic tested) • Enterobacter cloacae ATCC 13047—Gram-negative (compounds Ia and Ib tested) • Acinetobacter baumannii ATCC 19606—Gram-negative (compounds Ib and Ic tested) • Escherichia coli ATCC 25922—Gram-negative (compounds Ia and Ib tested)
# This technique enables to visualize the potential for inhibiting the growth of target pathogenic bacteria. A dose-response study at 12.5, 25, 50 and 100 μg of each compound has been carried out, comparing the inhibition zones with 10 μg gentamicin. […] Best results are obtained for Gran negative bacteria, especially Enterobacter cloacae as represented on FIG. 2.
# Compounds Ib, Ic, Ij, Ik, Il, Im, Ih, Ig, Ii, Id and If have also been tested on the following pathogenic bacteria in order to evaluate their inhibition efficacy by the Petri dish inhibition zone method: • Micrococcus luteus ATCC10240; • Bacillus subtilis ATCC6633; • Escherichia coli ATCC 25922.
# The percentage of inhibition growth at 100 μg of each tested compound has been determined.
# [9] = Staphylococcus aureus, ATCC25923, S. aureus ATCC 25923, read-out: MIC
MIC [4] [µg/mL],"MIC [5, 9] [µg/mL]",MIC ([5]; S. aureus ATCC 25923) [µg/mL],Structure (SMILES),inhibition of growth at 100 µg/disc [1] [%],inhibition of growth at 100 µg/disc [2] [%],inhibition activity (inhibition zone) [3],inhibition activity (inhibition zone) [6],inhibition activity (inhibition zone) [7],inhibition activity (inhibition zone) [8],inhibition of growth at 100 µg/disc [8] [%]
18.8,12.5,–,O=C1C=C[C@H](O)[C@H]1c1ccc(Cl)cc1 (racemic) [Ib],51,68,inhibition activity,inhibition activity,inhibition activity,inhibition activity,60
37.5,6.25,6.26,O=C1C=C[C@H](O)[C@H]1c1ccccc1Cl (racemic) [Ic],31,33,–,inhibition activity,inhibition activity,–,35
12,12,–,O=C1C=C[C@@](O)(CO)[C@H]1c1ccc(Cl)cc1 (racemic) [Id],30,0,–,–,–,–,45
6.25,6.25,–,CC(=O)O[C@H]1C=CC(=O)[C@@H]1c1ccccc1 (racemic) [Ie],–,–,–,–,–,–,–
–,–,–,O=C1C=C[C@@](O)(CO)[C@H]1c1ccccc1 (racemic) [If],0,21,–,–,–,–,57
–,–,–,O=C1C=C[C@@](O)(CO)[C@H]1c1ccc(F)cc1 (racemic) [Ig],18,0,–,–,–,–,55
–,–,–,COc1ccc([C@H]2C(=O)C=C[C@@]2(O)CO)cc1 (racemic) [Ih],0,0,–,–,–,–,55
–,–,–,O=C1C=C[C@@](O)(CO)[C@H]1c1ccc2c(c1)OCO2 (racemic) [Ii],0,0,–,–,–,–,45
–,–,–,COc1ccc(C2C(=O)C=C[C@@H]2O)cc1 (mixture of isomers) [Ij],61,39,–,–,–,–,62
–,–,–,COc1cccc(C2C(=O)C=C[C@@H]2O)c1 (mixture of isomers) [Ik],48,23,–,–,–,–,42
–,–,–,O=C1C=C[C@H](O)C1c1ccc2ccccc2c1 (mixture of isomers) [Il],57,50,–,–,–,–,40
–,–,–,O=C1C=C[C@H](O)C1c1cccc2ccccc12 (mixture of isomers) [Im],56,51,–,–,–,–,47
> 50,25,–,"O=C1C=C[C@H](O)[C@H]1c1ccccc1 (relative stereo) [Ia, (4S*,5R*)-4-hydroxy-5-phenyl-cyclopent-2-en-1-one]",–,–,inhibition activity,–,inhibition activity,inhibition activity,–
